{"source": "patent US8912144B2", "about": "“Method for treating stroke via administration of NEP1-40 and inosine” (Children's Medical Center Corporation, priority 2003, dated 2014)", "system": "corticospinal neurons (CSNs/CSMNs)", "test": "Laser-capture microdissection and Illumina microarray gene expression in corticospinal neurons contralateral to stroke", "assay_type": "in vivo, rat", "protocol": "In a separate group of animals (n=20), layer V pyramidal cells of the sensorimotor cortex were retrogradely labeled by injecting Alexa-Fluor-488-conjugated cholera toxin B subunit (CTB; 300 U/μl in sterile saline) into the cervical spinal cord. For this, animals were anesthetized with a combination of ketamine and Domitor (medetomidine) and a laminectomy was performed at the cervical level of the spinal cord (C2-C4). CTB was stereotaxically delivered into four sites lateral to the corticospinal tract. Injections (1.3 μl) were spaced 1 mm apart on the rostro-caudal axis, and were made 0.5 mm to the left and right of the midline. After allowing two weeks for transport of the tracer, we performed either sham surgery with no treatment (n=6) or stroke surgery combined with saline (n=3) or inosine (n=4) treatment as described above. Seven days later, animals were decapitated under transient gas anesthesia, brains were removed and rinsed in cold RPMI medium, and a tissue block containing the sensorimotor cortex was dissected and placed in OCT Tissue Tek Medium (Sakura Finetek USA Inc., CA) on dry ice within five minutes of death. Ten μm sections were cut onto precleaned Gold Seal RITE-ON glass slides (Gold Seal Prod-ucts, Portsmouth, N.H.), placed on dry ice, and rapidly stored at −80° C.\nSlide-mounted sections were thawed and dehydrated in RNAse-free ethanol gradients and xylene. Retro-gradely labeled, fluorescent cortical pyramidal cells in the undamaged hemisphere were individually captured using the Arcturus VERITAS system. ≧500 cells were collected from each animal and stored in Arcturus extraction buffer at −80° C. Total RNA was extracted from cells using the Micro-to-Midi TotalRNA Purification System (Invitrogen, Carlsbad Calif.) and double-amplified using the TargetAmp 2-Round Aminoallyl-aRNA Amplification kit 1.0 (Epicentre, Madison, Wis.). Amplified RNA was checked for average fragment length using the Agilent RNA 6000 Nano LabChip kit (Agilent Technologies, Santa Clara, Calif.) and then biotinylated and hybridized (1 μg) on Illumina RatRef-12 Expression BeadChip arrays (Illumina, San Diego Calif.), querying the expression of >22,000 RefSeq-curated rat transcripts. Results were obtained from a total of 15 samples representing 6 untreated controls, 4 animals with stroke treated with saline and 5 animals with stroke treated with inosine. Slides were processed and scanned with Illumina BeadStation platform according to the manufacturer protocol.\nRaw data was analyzed using Bioconductor packages (www.bioconductor.org, (Gentleman et al., 2004)). Low level quality-control analysis was performed using inter-array Pearson correlation and clustering based on variance. Two arrays (1 saline and 1 inosine-treated) were outliers and were excluded from the analysis. Data was normalized using quantile normalization, and analysis of differential expression was performed using a linear model fitting (LIMMA package, (Smyth, 2005). Differentially expressed genes were classified according to gene ontology using Bioconductor packages and online tools (DAVID, http://david.abcc.ncifcrf.gov/). Pathway analysis was carried out using Ingenuity Pathway Analysis (Ingenuity Systems, www.ingenuity.com)."}
{"smiles": "OC[C@H]1O[C@@H](n2cnc3c(O)ncnc32)[C@H](O)[C@@H]1O", "note": "[inosine]", "values": [{"measurement": "Fold-Induction Stroke, ino vs. cntrl", "setting": "A2m ILMN_70335", "result": 4.03}, {"measurement": "Signal Intensity Inosine", "setting": "A2m ILMN_70335", "result": 1924}, {"measurement": "Fold-Induction Stroke, ino vs. cntrl", "setting": "ADRP ILMN_47969", "result": 4.12}, {"measurement": "Signal Intensity Inosine", "setting": "ADRP ILMN_47969", "result": 3202}, {"measurement": "Fold-Induction Stroke, ino vs. cntrl", "setting": "Adn ILMN_58846", "result": 4.53}, {"measurement": "Signal Intensity Inosine", "setting": "Adn ILMN_58846", "result": 2287}, {"measurement": "Fold-Induction Stroke, ino vs. cntrl", "setting": "Aif1 ILMN_47707", "result": 2.67}, {"measurement": "Signal Intensity Inosine", "setting": "Aif1 ILMN_47707", "result": 4301}, {"measurement": "Fold-Induction Stroke, ino vs. cntrl", "setting": "Arhgdib ILMN_66176", "result": 4.08}, {"measurement": "Signal Intensity Inosine", "setting": "Arhgdib ILMN_66176", "result": 3057}, {"measurement": "Fold-Induction Stroke, ino vs. cntrl", "setting": "Arpc1b ILMN_69642", "result": 2.61}, {"measurement": "Signal Intensity Inosine", "setting": "Arpc1b ILMN_69642", "result": 758}, {"measurement": "Fold-Induction Stroke, ino vs. cntrl", "setting": "Asb2 ILMN_50991", "result": 3.27}, {"measurement": "Signal Intensity Inosine", "setting": "Asb2 ILMN_50991", "result": 615}, {"measurement": "Fold-Induction Stroke, ino vs. cntrl", "setting": "Aurkc ILMN_69140", "result": 1.43}, {"measurement": "Signal Intensity Inosine", "setting": "Aurkc ILMN_69140", "result": 1172}, {"measurement": "Fold-Induction Stroke, ino vs. cntrl", "setting": "Bcl2a1 ILMN_62703", "result": 3.34}, {"measurement": "Signal Intensity Inosine", "setting": "Bcl2a1 ILMN_62703", "result": 613}, {"measurement": "Fold-Induction Stroke, ino vs. cntrl", "setting": "Btf3 ILMN_62809", "result": 0.43}, {"measurement": "Signal Intensity Inosine", "setting": "Btf3 ILMN_62809", "result": 787}, {"measurement": "Fold-Induction Stroke, ino vs. cntrl", "setting": "C1qb ILMN_61448", "result": 2.76}, {"measurement": "Signal Intensity Inosine", "setting": "C1qb ILMN_61448", "result": 1832}, {"measurement": "Fold-Induction Stroke, ino vs. cntrl", "setting": "C1qg ILMN_55502", "result": 3.66}, {"measurement": "Signal Intensity Inosine", "setting": "C1qg ILMN_55502", "result": 2499}, {"measurement": "Fold-Induction Stroke, ino vs. cntrl", "setting": "C2 ILMN_63608", "result": 3.12}, {"measurement": "Signal Intensity Inosine", "setting": "C2 ILMN_63608", "result": 4113}, {"measurement": "Fold-Induction Stroke, ino vs. cntrl", "setting": "C4-2 ILMN_59751", "result": 2.95}, {"measurement": "Signal Intensity Inosine", "setting": "C4-2 ILMN_59751", "result": 2409}, {"measurement": "Fold-Induction Stroke, ino vs. cntrl", "setting": "Card9 ILMN_62382", "result": 2.83}, {"measurement": "Signal Intensity Inosine", "setting": "Card9 ILMN_62382", "result": 865}, {"measurement": "Fold-Induction Stroke, ino vs. cntrl", "setting": "Cd68 ILMN_60003", "result": 3.88}, {"measurement": "Signal Intensity Inosine", "setting": "Cd68 ILMN_60003", "result": 2117}, {"measurement": "Fold-Induction Stroke, ino vs. cntrl", "setting": "Cd151 ILMN_62725", "result": 1.50}, {"measurement": "Signal Intensity Inosine", "setting": "Cd151 ILMN_62725", "result": 1171}, {"measurement": "Fold-Induction Stroke, ino vs. cntrl", "setting": "Cdk5rap2 ILMN_57761", "result": 1.68}, {"measurement": "Signal Intensity Inosine", "setting": "Cdk5rap2 ILMN_57761", "result": 1377}, {"measurement": "Fold-Induction Stroke, ino vs. cntrl", "setting": "Chd4 ILMN_55276", "result": 1.26}, {"measurement": "Signal Intensity Inosine", "setting": "Chd4 ILMN_55276", "result": 7413}, {"measurement": "Fold-Induction Stroke, ino vs. cntrl", "setting": "Cml1 ILMN_50957", "result": 1.08}, {"measurement": "Signal Intensity Inosine", "setting": "Cml1 ILMN_50957", "result": 275}, {"measurement": "Fold-Induction Stroke, ino vs. cntrl", "setting": "Comt ILMN_48330", "result": 1.09}, {"measurement": "Signal Intensity Inosine", "setting": "Comt ILMN_48330", "result": 400}, {"measurement": "Fold-Induction Stroke, ino vs. cntrl", "setting": "Crabp2 ILMN_48069", "result": 2.62}, {"measurement": "Signal Intensity Inosine", "setting": "Crabp2 ILMN_48069", "result": 1006}, {"measurement": "Fold-Induction Stroke, ino vs. cntrl", "setting": "Cyba ILMN_65212", "result": 4.04}, {"measurement": "Signal Intensity Inosine", "setting": "Cyba ILMN_65212", "result": 2617}, {"measurement": "Fold-Induction Stroke, ino vs. cntrl", "setting": "Dhrsx ILMN_56966", "result": 1.38}, {"measurement": "Signal Intensity Inosine", "setting": "Dhrsx ILMN_56966", "result": 8022}, {"measurement": "Fold-Induction Stroke, ino vs. cntrl", "setting": "Dtx2 ILMN_65350", "result": 2.24}, {"measurement": "Signal Intensity Inosine", "setting": "Dtx2 ILMN_65350", "result": 1792}, {"measurement": "Fold-Induction Stroke, ino vs. cntrl", "setting": "Esd ILMN_57701", "result": 0.44}, {"measurement": "Signal Intensity Inosine", "setting": "Esd ILMN_57701", "result": 1416}, {"measurement": "Fold-Induction Stroke, ino vs. cntrl", "setting": "Ftl1 ILMN_62100", "result": 2.24}, {"measurement": "Signal Intensity Inosine", "setting": "Ftl1 ILMN_62100", "result": 11718}, {"measurement": "Fold-Induction Stroke, ino vs. cntrl", "setting": "Fxr2h ILMN_59638", "result": 1.64}, {"measurement": "Signal Intensity Inosine", "setting": "Fxr2h ILMN_59638", "result": 638}, {"measurement": "Fold-Induction Stroke, ino vs. cntrl", "setting": "Gfap ILMN_68224", "result": 2.88}, {"measurement": "Signal Intensity Inosine", "setting": "Gfap ILMN_68224", "result": 23099}, {"measurement": "Fold-induction CSMNs: Aif1", "setting": "ILMN_47707, over and above inosine's effect of decreasing stroke-induced changes", "result": 2.33, "unit": "fold"}, {"measurement": "Fold-Induction Stroke, ino vs. cntrl, Uxs1", "setting": "ILMN_47889", "result": 0.66}, {"measurement": "Signal Intensity, Uxs1", "setting": "ILMN_47889, inosine after stroke", "result": 2868}, {"measurement": "Fold-Induction Stroke, ino vs. cntrl, LOC366193", "setting": "ILMN_48004", "result": 0.67}, {"measurement": "Signal Intensity, LOC366193", "setting": "ILMN_48004, inosine after stroke", "result": 2396}, {"measurement": "Fold-induction CSMNs: Crabp2", "setting": "ILMN_48069, over and above inosine's effect of decreasing stroke-induced changes", "result": 2.12, "unit": "fold"}, {"measurement": "Fold-induction CSMNs: Ifitm3", "setting": "ILMN_48088, over and above inosine's effect of decreasing stroke-induced changes", "result": 2.74, "unit": "fold"}, {"measurement": "Fold-Induction Stroke, ino vs. cntrl, Ap3s1", "setting": "ILMN_48320", "result": 0.55}, {"measurement": "Signal Intensity, Ap3s1", "setting": "ILMN_48320, inosine after stroke", "result": 285}, {"measurement": "Fold-Induction Stroke, ino vs. cntrl, LOC499423", "setting": "ILMN_48323", "result": 0.53}, {"measurement": "Signal Intensity, LOC499423", "setting": "ILMN_48323, inosine after stroke", "result": 1043}, {"measurement": "Fold-Induction Stroke, ino vs. cntrl, Wee1", "setting": "ILMN_48447", "result": 0.83}, {"measurement": "Signal Intensity, Wee1", "setting": "ILMN_48447, inosine after stroke", "result": 367}, {"measurement": "Fold-Induction Stroke, ino vs. cntrl, Sfrs10", "setting": "ILMN_48507", "result": 0.72}]}
